How the values were obtained:
[1] = test system: HT-1080 cells; test: Cell viability assay (CCK-8); format: cell-based, human
Protocol: Cell viability was measured using a Cell Counting Kit-8 (CCK-8, Dojindo) as previously described (Koppula, P., et al. J Biol Chem 292, 14240-14249, doi: 10.1074/jbc.M117.798405 (2017); Liu, X. et al. Nat Cell Biol 18, 431-442, doi: 10.1038/ncb3328 (2016)). In brief, cells were seeded onto 96-well plates at a density of 1×10^4 per well. The next day, cells were treated with indicated compound for 16-20 h. Subsequently, cells were changed to new 100 μl medium containing 10 μl CCK-8 reagent for 1 h at 37° C., 5% CO2 in incubator. The absorbance at 450 nm was determined using a FLUOstar Omega microplate reader (BMG Labtech).

[2] = test system: HT-1080 cells; test: Lipid peroxidation measurement (C11-BODIPY 581/591, flow cytometry); format: cell-based, human; conditions: combined with RSL3, compared to RSL3 alone
Protocol: Cells were seeded on 12-well plates and incubated overnight. After treating with compounds for indicated time, cells were incubated in media containing 5 μM C11-BODIPY 581/591 (Invitrogen) for 30 min at 37° C. Then cells were trypsinized and collected. […] All experiments were performed in triplicates.

[3] = test system: NADP+/NADPH; test: NADP+ and NADPH measurement; format: cell-based; conditions: treated vs untreated cells
[4] = test system: oxidative PPP; test: Oxidative PPP flux calculation (1,2-[13C2] glucose); format: cell-based; conditions: sulfite vs vehicle treated cells
Protocol: Cells were seeded in six-well plates and incubated overnight, then given 2 ml of fresh medium containing 25 mM 1,2-[13C2] glucose. Aliquots of this medium were frozen and stored for analysis to determine the initial glucose concentration, and cells in replicate plates were trypsinized and counted to determine initial cell numbers. After 24 h, the spent medium was extracted as above and frozen until analysis, and the cells were trypsinized and counted to determine the final cell numbers.
For lactate isotopomer analysis the samples were analyzed directly. The relative quantities of M0, M1, M2 and M3 lactate were corrected for natural carbon-13 abundance using the IsoCorrectoR software package (Heinrich, P. et al. Sci Rep 8, 17910, doi: 10.1038/s41598-018-36293-4 (2018)). and the oxidative PPP-shunting ratio was calculated by taking the ratio M1/(M1+M2) (Badur, M. G. et al. Cell Rep 25, 1680, doi: 10.1016/j.celrep.2018.10.099 (2018)); since there is no difference in growth rates between the vehicle and sulfite treated cell lines, it is assumed that the biosynthetic demand for ribose-5-phosphate or any other PPP intermediate is the same in each case, so any increase in this ratio reflects an increase in NADPH production by the oxidative PPP.

[5] = test system: SHMT2; test: Protein level after sulfite treatment (Western blotting), SHMT2; format: cell-based; conditions: following treatment with sulfite
Protocol: To test if sulfite changed mitochondrial protein levels, SHMT2 and MTHFD2 protein levels were measured following treatment with sulfite. No changes in protein levels were observed (FIG. 9).
Briefly, cells were lysed in NP-40 lysis buffer (50 mM Tris [pH 7.4], 250 mM NaCl, 5 mM EDTA, 50 mM NaF, 1 mM Na3VO4, 1% Nonidet P40) containing complete mini protease inhibitors (Roche). The protein concentration of lysates was quantified using BCA Protein Assay Kit from Life Technologies (#23227). 20 μg of total protein was loaded into SDS-PAGE gel and transferred to a PVDF membrane (Bio-Rad) using standard techniques. The primary antibodies and concentrations used for Western blotting were Vinculin (1:1000, Sigma-Aldrich, #V4505), SUOX (1:1000, Abcam, #ab129094), SHMT2 (1:1000, Sigma-Aldrich, #HPA-020549), IDH1 (1:1000, Proteintech, #12332-1-AP), ME1 (1:1000,), MTHFD2 (1:1000, Abcam, #ab56772), Flag (1:1000, Sigma, #F1804), GPX4 (1:1,000, R&D, #MAB5457), COQ2 (1:1,000, Santa Cruz, sc-517107) and FSP1 (1:1000, Proteintech, #20886-1-AP).

[6] = test system: HT-1080 cells; test: Cell death assay (PI flow cytometry), HT-1080 cells incl. knockout lines
Protocol: Initially, the effect of sulfite on ferroptosis was studied. […] Each group was treated with vehicle alone or with sulfite.
The knockout cells were identified by immunoblotting.
Briefly, cells were seeded in 12-well plates and incubated overnight. After treatment, cells were trypsinized and collected. After washing with cold phosphate-buffered saline (PBS), the cells were stained with 2 μg/mL propidium iodide (PI) in cold PBS. […] All experiments were performed in triplicates.

O=S([O-])[O-].[Na+].[Na+] [sulfite, sodium sulfite]
cell viability when combined with different concentrations of RSL3 ([1]; combined with RSL3, range of concentrations): reduces cell viability
sensitization effect on cell viability in SHMT2 knock out cells ([1]; sulfite plus multiple concentrations of RSL3, SHMT2 knock out vs wild type): much weaker than in wild type cells
relative lipid peroxidation level in combination with RSL3 [2]: significantly increased
NADP+/NADPH ratio [3]: increase
oxPPP shunting [4]: increase
SHMT2 protein level [5]: No changes
cell death as observed visually ([6]; 0.5 mM, cancer cells, presence or absence of RSL3): resulted in cell death
sensitization of knock out cells to ferroptosis ([6]; GPX4, FSP1, COQ2 and DHODH knock out cell lines): can still sensitize
cell death in combination with RSL3 in SHMT2 knock out cells ([6]; RSL3+Sulfite vs RSL3 alone, SHMT2 knock out cells (FIG. 5J)): slight increase in cell death
cell death in combination with RSL3 in SUOX knockout cells ([6]; SUOX knockout HT-1080 cells, vs RSL3 alone): significantly more cell death
sensitization to RSL3 induced ferroptosis under co-treatment with ferroptosis regulator inhibitors ([6]; co-treatment with 4CBA, iFSP1 or brequinar (BQR)): can still sensitize
cell death in combination with RSL3 ([6]; combined with RSL3, compared to RSL3 alone): significant increased cell death
cell death in combination with FIN56 ([6]; combined with ferroptosis inducer FIN56): similarly enhanced
cell death in combination with JKE-1674 ([6]; combined with ferroptosis inducer JKE-1674 (JKE)): similarly enhanced
cell death in combination with ML-162 ([6]; combined with ferroptosis inducer ML-162): similarly enhanced
cell death in combination with ML-210 ([6]; combined with ferroptosis inducer ML-210): similarly enhanced

Source: patent US20260248767A1, “METHODS FOR INDUCING FERROPTOSIS IN CANCER” (Board of Regents, The University of Texas System, priority 2023, published 2026)
